# Source: patent US5043166A, “Liposome/anthraquinone drug composition and method” (priority 1989, dated 1991)
# Like-named read-outs stand apart in the source and are kept apart here.
# Key:
# [1] = repeated administration of graded doses of F-DXR and L-DXR; type: in vivo, mice; conditions: mouse, in vivo, iv, 10 mg/kg, read-out: % Surviving; for survival at 1008 h: day 42, 10 mg/kg
# Protocol: (§1) L-DXR was prepared as in Example I, to final DXR concentrations of 0.5, 0.75, and 1.0 mg/ml, corresponding to phospholipid concentrations of 8, 12, and 16 μmole/ml, respectively, and cholesterol concentrations of 3.2, 4.8, and 6.4 μmole/ml, respectively. Free DXR (F-DXR) was prepared in sterile, pyrogen-free physiologic saline solution to final concentrations of 0.5, 0.75, and 1 mg/ml.
# (§2) Sabra mice were divided into groups of 15 mice. Three different doses of either F-DXR or L-DXR were tested: 5, 7.5, and 10 mg/kg body weight. Each dose level was tested on 15 male and 15 female mice. Treatment was administered as a bolus injection through the tail vein on days 0, 14, 28, 42, 56, 70, 84, and 98 of the experiment. The pulsed injection scheme was used for the purpose of achieving high cumulative doses, prolonging the period of exposure of the animals to the drug, and mimicking the way DXR is usually administered in clinical practice. In view of the toxicity observed after single injection (Example XI), DXR was administered at a maximum 10 mg/kg dosage so that the occurrence of acute toxicity would be reduced or nil. In order to avoid the overlapping myelosuppression of successive treatment, 14 days were allowed between successive injections, based on previous observations that full regeneration of the activity of myeloid centers in the spleen after treatment with 10 mg/kg of DXR occurred between 7-12 days after drug administration.
# (§3) During the course of the experiment, mice were inspected daily and survival curves were recorded. Whenever possible, dead mice were autopsied and a limited sample of organs sent for histopathological examination. Blood counts and body weights were checked weekly. The blood counts were done in a Coulter analyzer with a 20 μl sample obtained from the retro-orbital blood sinuses. One-third of the mice of each group were sacrificed on day 42, after 3 injections. A second third was sacrificed on day 84, after 6 injections. The remaining mice were sacrificed on day 180, 82 days after the 8the and last injection. Before sacrifice, the mice were bled under light ether anesthesia to obtain serum for the biochemical tests. The animals were then dissected and the removed organs, after weighing, were fixed in Bouin's solution and processed for light microscopy examination with hematoxylin-eosin-phosphomolybdic acid: light green stain.
# (§4) (c) Effects on Body and Organ Weights. […] The weight measurements were made 42, 84, and 180 days after initial drug injection. The body and organ weights are expressed in percent relative to untreated mice. The percent survivors at each of the three time points is indicated at the top in the table; the dashes (-) indicate no survivors.
# [2] = system: Sabra mice; experiment: as above; type: in vivo
# Protocol: as §1, §2, §3, §4
# [3] = system: human cancer patients; conditions: cited from earlier work
# [4] = system: human cancer patients; experiment: clinical trials with L-DXR in cancer patients; conditions: in vivo
# Protocol: Eight cancer patients have been treated with the L-DXR composition of Example III. The administration of the drug was done using a 120 ml "Voluset" at a concentration of approximately 0.5 mg/ml in isotonic saline and at a rate of 2-3 ml per min. For intraarterial injections, peristaltic pumps were used, with the rate of infusion being ~1.5 ml/min. […] This was done taking advantage of previously implanted pumps. In both patients, the perfusion of the liver with the pump was previously examined with a Tc-99 labeled macroaggregated albumin scan.
# [5] = cited from earlier work
# [6] = blood biochemistry after repeated administration; type: in vivo, mice; conditions: mouse, in vivo, iv, female, read-out: % Surviving (Table IX)
# Protocol: as §2, §3
# (§5) d) Effects on Blood Biochemistry Values. Blood levels of glucose, cholesterol, triglycerides, urea, uric acid, creatine, and total protein were measured at 42, 84, and 180 day time points. Blood enzyme levels of alkaline phosphatase, aspartate aminotransferase, and alanine aminotransferase were also assayed at these time points.
# (§6) The most important differences in blood chemistry between F-DXR and L-DXR administration occurred in blood glucose, cholesterol, and triglyceride levels. These differences are seen in Table III below, which gives data on female mice receiving 10 mg/kg of either F-DXR or L-DXR. Glucose, cholesterol, and triglyceride levels are expressed as percent control (untreated) animals, and "nm" means "not measured".
# [7] = system: Sabra mice; experiment: blood biochemistry after repeated administration; type: in vivo
# Protocol: as §2, §3, §5, §6
# [8] = system: myeloid centers in the spleen; conditions: 10 mg/kg of DXR; cited from earlier work
smiles,measurement,setting,value
"COc1cccc2c1C(=O)c1c(O)c3c(c(O)c1C2=O)C[C@@](O)(C(=O)CO)C[C@@H]3O[C@H]1C[C@H](N)[C@H](O)[C@H](C)O1 [DXR, doxorubicin]",survival at 1008 h,[1]; female,93%
same,survival at 2016 h,"[1]; female, day 84, 10 mg/kg",27%
same,survival at 1008 h,[1]; male,87%
same,lower limb weakness,[2]; 10 mg/kg,marked weakness of the lower limbs
same,"organ weights (liver, spleen, kidneys, heart)",[2]; 10 mg/kg,substantial weight reduction
same,"mortality rates, all groups","[2]; 5, 7.5 and 10 mg/kg",Significant mortality rates
same,white cell count,[2]; 7 and 14 days after each injection,no significant differences between the F-DXR and the L-DXR treated groups
same,findings in animals dying,[2]; 7.5 and 5 mg/kg,"pleural and peritoneal effusions, cardiomegaly, and lung congestion"
same,"Body weight, percent relative to untreated mice","[2]; female, day 42, 10 mg/kg",95%
same,"Heart weight, percent relative to untreated mice","[2]; female, day 42, 10 mg/kg",97%
same,"Kidneys weight, percent relative to untreated mice","[2]; female, day 42, 10 mg/kg",78%
same,"Liver weight, percent relative to untreated mice","[2]; female, day 42, 10 mg/kg",107%
same,"Spleen weight, percent relative to untreated mice","[2]; female, day 42, 10 mg/kg",78%
same,"Body weight, percent relative to untreated mice","[2]; female, day 84, 10 mg/kg",84%
same,"Heart weight, percent relative to untreated mice","[2]; female, day 84, 10 mg/kg",74%
same,"Kidneys weight, percent relative to untreated mice","[2]; female, day 84, 10 mg/kg",91%
same,"Liver weight, percent relative to untreated mice","[2]; female, day 84, 10 mg/kg",91%
same,"Spleen weight, percent relative to untreated mice","[2]; female, day 84, 10 mg/kg",67%
same,sex difference in toxicity,[2]; high and intermediate dosages,slight trend towards higher toxicity in male as compared to female mice
same,"Body weight, percent relative to untreated mice","[2]; male, day 42, 10 mg/kg",75%
same,"Heart weight, percent relative to untreated mice","[2]; male, day 42, 10 mg/kg",82%
same,"Kidneys weight, percent relative to untreated mice","[2]; male, day 42, 10 mg/kg",76%
same,"Liver weight, percent relative to untreated mice","[2]; male, day 42, 10 mg/kg",75%
same,"Spleen weight, percent relative to untreated mice","[2]; male, day 42, 10 mg/kg",71%
same,previous treatment outcome,"[3]; patient 5, hepatoma",Previous failure
same,previous treatment outcome,"[3]; patient 8, hepatoma",failure
same,fever,[4],fever was a constant feature
same,cardiac toxicity on repeated administration,[5]; repeated administration,cumulative and irreversible cardiac damage
same,acute toxicity,[5]; soluble form,"malaise, nausea, vomiting myelosuppression, and severe alopecia"
same,survival at 1008 h,"[6]; day 42, 10 mg/kg",93%
same,survival at 2016 h,"[6]; day 84, 10 mg/kg",27%
same,blood cholesterol,[7]; 10 mg/kg,hypercholesterolemia
same,blood glucose,[7]; 10 mg/kg,decreased blood glucose
same,blood triglyceride,[7]; 10 mg/kg,hyperglyceridemia
same,creatine levels,"[7]; 7.5 and 5 mg/kg, 180 days",increased creatine levels
same,alanine aminotransferase,[7]; 180 days,a drop in alanine aminotransferase
same,"Cholesterol, percent control (untreated)","[7]; female, day 42, 10 mg/kg",300 percent control
same,"Glucose, percent control (untreated)","[7]; female, day 42, 10 mg/kg",97 percent control
same,"Cholesterol, percent control (untreated)","[7]; female, day 84, 10 mg/kg",383 percent control
same,"Glucose, percent control (untreated)","[7]; female, day 84, 10 mg/kg",57 percent control
same,"Triglyceride, percent control (untreated)","[7]; female, day 84, 10 mg/kg",416 percent control
same,liver enzymes (alkaline phosphatase and aminotransferases),"[7]; mouse, in vivo",Increased liver enzymes
same,full regeneration of myeloid centers in the spleen,[8],7 to 12 days
